From patent US20030138946A1

Assays:
2C+ T-cells = assay: Rosetting of 2C+ T-cells with L^d-bearing supports plus peptide; type: cell-based, mouse; details: peptide 0.02 mM
Method: Rosetting experiments verified that the attached MHC molecules interacted functionally with T-cells. Drosophila S2 cells expressing L^d, L^d-coated SRBC were incubated with QL9 peptide (0.02 mM) or an irrelevant peptide (MCMV, 0.02 mM) for 30 minutes on ice; 2C+ T-cells were then added, the proportion being 10 2C+ T-cells for 1 Drosophila S2 cell, or 10 SRBC for 1 2C+ T-cell; the mixture was pelleted and kept on ice for at least 30 min. Cells were then carefully resuspended and rosettes were counted, a rosette being a Drosophila S2 cell bound to at least 3 2C+ T-cells, or a 2C+ T-cell bound to at least 3 SRBC. […] Typically, 30-40% of the lymphocytes were included in rosettes when QL9 peptide was added.
Rosetting experiments verified that the attached MHC molecules on latex beads interacted functionally with T-cells. Drosophila S2 cells expressing recombinant L^d and L^d-coated latex beads were incubated with QL9 peptide (0.02 mM) or an irrelevant peptide (MCMV, 0.02 mM) for 30 minutes on ice; 2C+ T-cells were then added, the proportion being 10 2C+ T-cells for 1 Drosophila S2 cell, or […]; the mixture was pelleted and kept on ice for at least 30 min. Cells were then carefully resuspended and rosettes were counted, a rosette being a Drosophila S2 cell bound to at least 3 2C+ T-cells, or a 2C+ T-cell bound to at least 3 latex beads. […]

CD8^+ 2C cells = assay: Dose-response of day 3 proliferation of CD8+ 2C cells to peptides on transfected Drosophila APC; type: cell-based, mouse; details: for proliferative response: 1 nM peptide
Method: Responses to p2Ca (above) and QL9 (below) were measured by culturing 5×10^4 purified CD8^+ 2C cells with 2×10^5 Drosophila cells in the presence or absence of the indicated concentrations of peptides for 3 days. [^3H] TdR was added during the last 8 hours of culture; rIL-2 was added at a final concentration of 20 units/ml. The data are the mean of triplicate cultures. When supplemented with exogenous IL-2, however, both peptides stimulated significant proliferative responses at high doses (10 μM). The proliferative responses elicited by QL9 were far stronger than for p2Ca (note the large difference between the scales of x-axes of the upper and the lower panel).
Dose-response relationships for proliferation on day 3 elicited by Drosophila cells transfected with L^d.B7.1CAM and presenting p2Ca peptide were compared to those elicited by Drosophila cells transfected with L^d.B7, L^d.ICAM or L^d.B7.1CAM presenting QL9 peptide. Drosophila APC (2×10^5 cells) were cultured with 5×10^4 CD8^+ 2C cells for three days in the presence or absence of peptides. [^3H] TdR was added during the last 8 hours of culture; no IL-2 was added to the cultures.

Gln-Leu-Ser-Pro-Phe-Pro-Phe-Asp-Leu [QL9]
lymphocytes included in rosettes (2C+ T-cells; Drosophila S2 cells expressing L^d or L^d-coated SRBC): 30-40% | lymphocytes included in rosettes (2C+ T-cells; Drosophila S2 cells expressing L^d or L^d-coated latex beads): 30-40% | proliferative response (CD8^+ 2C cells; L^d.B7 and L^d.ICAM APC): < 100 cpm | proliferative response (CD8^+ 2C cells; L^d.B7.1CAM APC): > 10,000 cpm | effect of high peptide dose on day 3 proliferative response (CD8^+ 2C cells; 10 μM peptide, L^d.B7.1CAM APC): inhibited | proliferation of 2C CD8+ cells (CD8^+ 2C cells; Drosophila cells with L^d alone, no exogenous lymphokines): failed | lowest peptide dose with clearly apparent day 3 proliferative response (CD8^+ 2C cells; L^d.B7.1CAM APC, no IL-2): ≤ 10 pM | peptide concentration giving maximal day 3 proliferative response (CD8^+ 2C cells; L^d.B7.1CAM APC, no IL-2): 100 nM
